Results: patent US20230339871A1, “COMPOUNDS AND METHODS OF MODULATING 17B-HYDROXYSTEROID DEHYDROGENASE TYPE 13” (METREA BIOSCIENCES, INC., priority 2020, published 2023)
One block for each compound: values may come before it.

What was measured:
IL-8 = IL-8 gene expression in HepG2 cells overexpressing HSD17B13 under fatty acid challenge; format: cell-based, human
Experimental: (§1) To examine the effect of HSD17B13 inhibitors on inflammatory cytokine expression HepG2 cells were exposed to various concentrations of HSD17B13 inhibitors. Briefly, HepG2 cells, an immortalized human liver cancer cell line, were modified to overexpress HSD17B13. Cells were grown in EMEM (ATCC) with 10% FBS and penicillin/streptomycin. One day prior to transfection 750,000 cells were plated per well in a 6 well plate and cultured overnight. […] of pCMV6-Entry-HSD17B13 or empty vector (Origene) were transfected using Lipofectamine 3000 (Invitrogen) and the cells were cultured for 24 hours. Cells were split into selection media ([…] G418 (Gibco)) and a stable pool was established and verified by qPCR and western blotting using an anti-Flag antibody (Genscript). HepG2 cells overexpressing HSD17B13 or empty vector control, were seeded at 400,000 cells per well in 12 well plates and cultured overnight. Media was replaced with serum-free EMEM and cultured an additional night. […]
(§2) […] RNA quality and concentration were determined on a Nanodrop. cDNA was synthesized from 1 μg RNA using iScript reverse transcription supermix (Biorad) and rtPCR performed with 1 μl cDNA using SsoAdvanced Universal Probes Supermix (Biorad). […]

HepG2 cells = assay: Toxicity to HepG2 cells in the cytokine expression experiment; format: cell-based, human; settings: 30 μM
Experimental: as §1, §2

[1] = target: T1, recombinant human full-length HSD17B13 protein (Homo sapiens, UniProt Q7Z5P4); assay: HSD17B13 96 luminescence inhibition assay (NAD(P)H-Glo); format: biochemical
T1 construct: recombinant human full-length HSD17B13 protein; 6xHis (C); made in house; host or cells: HEK293E-253/FH
T1 sequence (Q7Z5P4 20-300): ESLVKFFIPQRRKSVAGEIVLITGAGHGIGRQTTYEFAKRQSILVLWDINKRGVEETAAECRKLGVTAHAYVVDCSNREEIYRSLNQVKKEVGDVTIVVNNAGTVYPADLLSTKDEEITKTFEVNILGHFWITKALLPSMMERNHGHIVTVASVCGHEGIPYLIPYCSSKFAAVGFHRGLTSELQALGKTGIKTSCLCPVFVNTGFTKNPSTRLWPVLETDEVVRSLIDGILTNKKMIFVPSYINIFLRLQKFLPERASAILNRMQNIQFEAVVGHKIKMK
Experimental: Compounds of the present disclosure were tested for inhibition of HSD17B13 using the following protocol. Briefly, recombinant human full-length HSD17B13 protein with a 6X-C-terminal His tag was expressed in cell line HEK293E-253/FH and purified using Ni^2+-affinity purification. Enzymatic activity was determined through the production of NADH using the NAD(P)H-Glo Detection System (Promega). The inhibitory activity of test compounds was determined in reactions performed at 30° C. in assay buffer consisting of 25 mM EPPS (8.0), 125 mM NaCl, 0.03% Triton X-100, 0.03% BSA, with […] steroid substrate (1,3,5(10), 7-estratetraen-3, 17b-diol (Steraloids E0580)) added from a 2.5 mM DMSO stock and 500 mM NAD. The final percentage of DMSO was 4.5%. After a one-hour incubation, a 20% volume of luciferase Glo-reagent was added and light units captured on a Victor V Plate Reader (Perkin Elmer).
Concentration-response curves for inhibitors were normalized to control samples containing enzyme only (negative control) and sample without enzyme (positive control). 50% inhibition (IC50) values were determined using a nonlinear least squares fit of the data to a four-parameter equation using Prism 6.0 (GraphPad Software, San Diego).

IL-32 = IL-32 gene expression in HepG2 cells overexpressing HSD17B13 under fatty acid challenge; format: cell-based, human
Experimental: To examine the effect of HSD17B13 inhibitors on inflammatory cytokine expression HepG2 cells were exposed to various concentrations of HSD17B13 inhibitors. Briefly, HepG2 cells, an immortalized human liver cancer cell line, were modified to overexpress HSD17B13. Cells were grown in EMEM (ATCC) with 10% FBS and penicillin/streptomycin. One day prior to transfection 750,000 cells were plated per well in a 6 well plate and cultured overnight. […] of pCMV6-Entry-HSD17B13 or empty vector (Origene) were transfected using Lipofectamine 3000 (Invitrogen) and the cells were cultured for 24 hours. Cells were split into selection media ([…] G418 (Gibco)) and a stable pool was established and verified by qPCR and western blotting using an anti-Flag antibody (Genscript). HepG2 cells overexpressing HSD17B13 or empty vector control, were seeded at 400,000 cells per well in 12 well plates and cultured overnight. Media was replaced with serum-free EMEM and cultured an additional night. A 12 mM fatty acid stock of oleic acid/palmitate at a 2:1 ratio was prepared in 10% fatty acid free BSA (Sigma) by combining 8 mM oleic acid and 4 mM palmitate and rotating overnight at 30° C. The solution was then sonicated for an additional 45 minutes to solubilize.
[…] The cells were lysed in RLT buffer and RNA purified using a Qiagen RNeasy mini kit. RNA quality and concentration were determined on a Nanodrop. cDNA was synthesized from 1 μg RNA using iScript reverse transcription supermix (Biorad) and rtPCR performed with 1 μl cDNA using SsoAdvanced Universal Probes Supermix (Biorad). Taqman probes (Thermo Fisher) were used to look at effects of fatty acids and HSD17B13 inhibitors on IL-8 and IL-32 gene expression using GAPDH as an endogenous control.

[2] = RESOLVE-IT, NCT02704403; cited from earlier work
[3] = 3 µM, 10 µM, or 30 µM, saturated fatty acid NASH challenge
[4] = 3-hour exposure to 3 μM, 10 μM, or 30 μM, fold change relative to untreated cells

- IC50 [1]: ≤ 1000 nM
Structure (SMILES): CS(=O)(=O)c1cccc(CN2C(=O)S/C(=C\c3c(F)cc(F)c(O)c3F)C2=O)c1 [Compound 5, (Z)-3-(3-(methylsulfonyl)benzyl)-5-(2,4,6-trifluoro-3-hydroxybenzylidene) thiazolidine-2,4-dione]
- expression of IL-8 (FIG. 1A) (IL-8; [3]): decreased expression
- relative expression levels of IL-8 (IL-8; [4]): decreased
- toxicity to the cells (HepG2 cells): some toxicity
- reduction in IL-32 expression (IL-32; 3 μM dose): 60-70%
- expression of IL-32 (FIG. 1B) (IL-32; [3]): decreased expression
- relative expression levels of IL-32 (IL-32; [4]): decreased

- IC50 [1]: ≤ 1000 nM
Structure (SMILES): O=C1S/C(=C\c2ccc3nn[nH]c3c2)C(=O)N1Cc1cccc(O)c1 [Compound 38, (Z)-5-((1H-benzo[d][1,2,3]triazol-6-yl)methylene)-3-(3-hydroxybenzyl)thiazolidine-2,4-dione]

- IC50 [1]: 1000 to 5000 nM
Structure (SMILES): COc1cccc(CNC(=O)c2ccc3cc(F)c(O)c(F)c3n2)c1 [Compound 39, 6,8-difluoro-7-hydroxy-N-[(3-methoxyphenyl)methyl]quinoline-2-carboxamide]

Structure (SMILES): CSc1ccc(C(=O)/C=C/c2cc(C)c(OC(C)(C)C(=O)O)c(C)c2)cc1 [Elafibranor]
- Status (as of May 2020) [2]: Completed - failed
